For test [1], the target named is T1, Adenosine receptor A1 (Rattus norvegicus, UniProt P25099).
T1 sequence (P25099 whole entry): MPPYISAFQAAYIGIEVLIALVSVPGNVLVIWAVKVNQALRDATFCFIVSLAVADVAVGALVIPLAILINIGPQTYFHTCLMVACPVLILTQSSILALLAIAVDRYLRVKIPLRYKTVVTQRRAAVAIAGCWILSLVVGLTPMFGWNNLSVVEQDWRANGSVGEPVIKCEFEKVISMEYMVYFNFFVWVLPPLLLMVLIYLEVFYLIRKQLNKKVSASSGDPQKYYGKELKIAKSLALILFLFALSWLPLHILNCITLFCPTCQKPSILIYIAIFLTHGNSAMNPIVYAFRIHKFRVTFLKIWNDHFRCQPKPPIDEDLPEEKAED
In words: Ability to displace radioligand [3H]- DPCPX from adenosine A1 receptor on rat cortical membrane in the presence of 1 mM of GTP.

Test [2] has as its target Adenosine receptor A2a (Rattus norvegicus, UniProt P30543).
For test [3], the target named is T1, Adenosine receptor A1.
Description: Ability to displace radioligand [3H]- DPCPX from adenosine A1 receptor on rat cortical membrane in the absence of GTP
Test [4] in a line: GTP shift was determined.
For test [5], the target named is T2, Adenosine receptor A3 (Homo sapiens, UniProt P0DMS8).
T2 sequence (P0DMS8 whole entry): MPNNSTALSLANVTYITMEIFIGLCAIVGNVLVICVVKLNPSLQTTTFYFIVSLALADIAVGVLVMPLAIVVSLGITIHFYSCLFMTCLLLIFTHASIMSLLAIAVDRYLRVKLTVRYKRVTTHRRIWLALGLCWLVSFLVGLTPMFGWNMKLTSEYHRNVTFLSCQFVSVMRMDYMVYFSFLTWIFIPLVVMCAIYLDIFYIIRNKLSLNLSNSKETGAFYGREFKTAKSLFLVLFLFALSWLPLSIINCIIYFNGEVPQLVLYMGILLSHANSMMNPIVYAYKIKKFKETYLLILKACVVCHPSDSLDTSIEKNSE
In words: Ability to displace radioligand [125I]AB-MECA from membrane of HEK 293 cells stably transfected with human adenosine A3 receptor cDNA. Format: cell membranes, HEK293.

Test [6] has as its target T3, Adenosine receptor A2b (Homo sapiens, UniProt P29275).
T3 sequence (P29275 whole entry): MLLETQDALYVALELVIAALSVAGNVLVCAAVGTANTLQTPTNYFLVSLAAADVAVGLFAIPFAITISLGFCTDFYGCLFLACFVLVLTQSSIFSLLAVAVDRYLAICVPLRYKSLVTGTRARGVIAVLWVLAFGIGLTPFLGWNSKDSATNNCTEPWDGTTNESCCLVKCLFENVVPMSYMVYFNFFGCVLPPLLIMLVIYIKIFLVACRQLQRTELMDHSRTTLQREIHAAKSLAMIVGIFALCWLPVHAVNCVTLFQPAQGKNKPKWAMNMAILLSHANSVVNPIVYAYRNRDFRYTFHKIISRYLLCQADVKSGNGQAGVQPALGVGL
In words: Effective concentration for cAMP production in CHO-KI cells stably transfected with human adenosine A2B receptor cDNA.

Test [7] has as its target T4, Adenosine receptor A2b (Homo sapiens) (UniProt P29275).
T4 sequence (whole entry): T3 sequence (P29275 whole entry)
Put plainly: Effective concentration for cAMP production in CHO-KI cells expressing human adenosine A2B receptor at 100 uM. Format: functional, cell-based. (In general: cAMP levels reflect the balance of adenylyl cyclase and phosphodiesterase activity.)

Chain of Adenosine receptor A2a (P30543 whole entry): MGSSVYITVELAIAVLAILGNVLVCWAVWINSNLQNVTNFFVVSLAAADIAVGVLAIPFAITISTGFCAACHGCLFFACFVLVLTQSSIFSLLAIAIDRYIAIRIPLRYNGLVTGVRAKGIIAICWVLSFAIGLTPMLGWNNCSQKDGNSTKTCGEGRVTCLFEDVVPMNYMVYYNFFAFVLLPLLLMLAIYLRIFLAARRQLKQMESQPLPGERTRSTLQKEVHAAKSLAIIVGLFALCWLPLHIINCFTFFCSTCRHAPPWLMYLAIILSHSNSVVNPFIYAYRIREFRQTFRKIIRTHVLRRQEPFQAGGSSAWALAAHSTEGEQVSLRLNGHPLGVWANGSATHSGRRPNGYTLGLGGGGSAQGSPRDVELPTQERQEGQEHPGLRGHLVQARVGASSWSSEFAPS

Consider `Nc1ncnc2c1ncn2[C@@H]1O[C@H](C(=S)NC2CC2)[C@@H](O)[C@H]1O`, for which the Ki in test [1] was found to be 459 nM; in test [2] it was 130 nM; in test [3], 137 nM; in test [5], 2280 nM. The GTP shift in test [4] amounted to 3.4. This compound also returned an EC50 in test [6] of 13000 nM.
For the compound `CNC(=O)[C@H]1O[C@@H](n2cnc3c(N)ncnc32)[C@H](O)[C@@H]1O`, the Ki worked out at 6840 nM in test [1], 1080 nM in test [3] and 6.4 nM in test [5]. Besides, the EC50 in test [6] turned out to be 45000 nM.
As to `Nc1ncnc2c1ncn2[C@@H]1O[C@H](C(=O)NC2CCCC2)[C@@H](O)[C@H]1O`, the Ki in test [1] turned out to be 4900 nM; in test [2], 610 nM; in test [3], 770 nM; in test [5], 32 nM. Moreover, in test [4], the GTP shift amounted to 6.4. This compound also registered an EC50 in test [6] of 54000 nM.
For `CNC(=O)[C@H]1O[C@@H](n2cnc3c(NCc4cccc(I)c4)ncnc32)[C@H](O)[C@@H]1O` [IB-MECA], the EC50 in test [6] is 11000 nM.
As to `Nc1ncnc2c1ncn2[C@@H]1O[C@H](C(=O)NC2CCC2)[C@@H](O)[C@H]1O`, the Ki was determined as 49 nM in test [2] and 23 nM in test [5]. This compound also gave an EC50 in test [6] of 33000 nM.
For `CC(C)(C)NC(=O)[C@H]1O[C@@H](n2cnc3c(N)ncnc32)[C@H](O)[C@@H]1O`, the Ki in test [1] was found to be 6950 nM; in test [2], 1340 nM; in test [3], 2730 nM; in test [5], 8500 nM. The compound also gave an Emax in test [7] of 10%. Also, the GTP shift in test [4] worked out at 2.6.
Regarding `CONC(=O)[C@H]1O[C@@H](n2cnc3c(N)ncnc32)[C@H](O)[C@@H]1O`, the Ki worked out at 1960 nM in test [1], 623 nM in test [2], 1620 nM in test [3] and 85.3 nM in test [5]. The GTP shift in test [4] was determined as 2.4. For the same compound, in test [6], the EC50 came out at 45000 nM.
Regarding `Nc1ncnc2c1ncn2[C@@H]1O[C@H](C(=O)NCCCl)[C@@H](O)[C@H]1O`, the Ki in test [1] was 890 nM; in test [2], 410 nM; in test [3], 248 nM; in test [5] it was 322 nM. Besides, the GTP shift in test [4] came out at 3.6. Moreover, in test [6], the EC50 came to 32000 nM.
`CC(C)NC(=O)[C@H]1OC(n2cnc3c(N)ncnc32)[C@H](O)[C@@H]1O` (some centres not stated): the inhibitory constant (Ki) stood at 804 nM in test [1], 160 nM in test [2], 257 nM in test [3] and 211 nM in test [5]. In addition, the GTP shift in test [4] worked out at 3.1. This compound yielded an EC50 in test [6] of 37000 nM.
As for `Nc1ncnc2c1ncn2[C@@H]1O[C@H](C(=O)NC2CC2)[C@@H](O)[C@H]1O`, the affinity in test [5] corresponds to a Ki of 108 nM. In test [6], this compound showed an EC50 of 5300 nM.
As for `CCNC(=S)[C@H]1O[C@@H](n2cnc3c(N)ncnc32)[C@H](O)[C@@H]1O`, the Ki was determined as 478 nM in test [1], 130 nM in test [2], 141 nM in test [3] and 569 nM in test [5]. Also, the GTP shift in test [4] worked out at 3.4. In test [6], this compound had an EC50 of 16000 nM.

By Ki is commonly meant the equilibrium dissociation constant of an inhibitor or competing ligand from its target. Broadly, the EC50 is the concentration giving half of the maximal effect. A higher EC50 goes with a need for much substance. A word on the Emax: it is the maximal effect, on the per cent scale that the assay sets.

These data come from ChEMBL document CHEMBL1132702, “5'-N-substituted carboxamidoadenosines as agonists for adenosine receptors” (J Med Chem, 1999).
